Measurements taken from US20090156577A1, “7-AMINO ALKYLIDENYL-HETEROCYCLIC QUINOLONES AND NAPHTHYRIDONES” (priority 2004, published 2009).
≈ marks a conversion by molar mass, not a printed value. Structures can show the parent of a compound that is named as a salt. Where two headings read alike, the source gives them in different places.

Test system: pathogenic bacteria
Assay: MIC by microdilution broth method (NCCLS M7-A4), in vitro antibacterial activity
Type: cell-based
Method: Minimal inhibitory concentration (MIC) has been an indicator of in vitro antibacterial activity widely used in the art. The in vitro antimicrobial activity of the compounds was determined by the microdilution broth method following the test method from the National Committee for Clinical Laboratory Standards (NCCLS). This method is described in the NCCLS Document M7-A4, Vol. 17, No. 2, “Methods for Dilution Antimicrobial Susceptibility Test for Bacteria that Grow Aerobically—Fourth Edition”, which is incorporated herein by reference.
In this method two-fold serial dilutions of drug in cation adjusted Mueller-Hinton broth are added to wells in microdilution trays. The test organisms are prepared by adjusting the turbidity of actively growing broth cultures so that the final concentration of test organism after it is added to the wells is approximately 5×10^4 CFU/well.
Following inoculation of the microdilution trays, the trays are incubated at 35° C. for 16-20 hours and then read. […] The amount of growth in the wells containing the test compound is compared with the amount of growth in the growth-control wells (no test compound) used in each tray. As set forth in Table 5, compounds of the present invention were tested against a variety of pathogenic bacteria resulting in a range of activities depending on the organism tested.

[1] = Staphylococcus aureus, Organism A: Staphylococcus aureus OC4172, read-out: MIC
[2] = Streptococcus pneumoniae, ATCC49619, Organism E: Streptococcus pneumoniae ATCC 49619, read-out: MIC
[3] = Streptococcus pneumoniae, Organism B: fluoroquinolone-resistant clinical isolate of Streptococcus pneumoniae (QRDR amino acid substitutions)
[4] = Streptococcus pneumoniae, Organism C: fluoroquinolone-resistant clinical isolate of Streptococcus pneumoniae (QRDR amino acid substitutions)
[5] = Streptococcus pneumoniae, Organism D: fluoroquinolone-resistant clinical isolate of Streptococcus pneumoniae (QRDR amino acid substitutions)
[6] = Organism A: Staphylococcus aureus OC4172
[7] = Organism C: fluoroquinolone-resistant clinical isolate of Streptococcus pneumoniae (QRDR amino acid substitutions)
[8] = Organism E: Streptococcus pneumoniae ATCC 49619

| SMILES | MIC [1] [µg/mL] | MIC [2] [µg/mL] | MIC [3] [µg/mL] | MIC [4] [µg/mL] | MIC [5] [µg/mL] | MIC [6] [µg/mL] | MIC (Organism B: fluoroquinolone-resistant clinical isolate of Streptococcus pneumoniae (QRDR amino acid substitutions)) [µg/mL] | MIC [7] [µg/mL] | MIC (Organism D: fluoroquinolone-resistant clinical isolate of Streptococcus pneumoniae (QRDR amino acid substitutions)) [µg/mL] | MIC [8] [µg/mL] |
| --- | --- | --- | --- | --- | --- | --- | --- | --- | --- | --- |
| NCC(F)=C1CCN(c2nc3c(cc2F)c(=O)c(C(=O)O)cn3C2CC2)CC1 [Compound 1, 7-[4-(2-Amino-1-fluoro-ethylidene)-piperidin-1-yl]-1-cyclopropyl-6-fluoro-4-oxo-1,4-dihydro-[1,8]naphthyridine-3-carboxylic acid] | 0.03 (≈ 0.0768 µM) | 0.12 (≈ 0.307 µM) | 2 (≈ 5.12 µM) | 0.5 (≈ 1.28 µM) | 1 (≈ 2.56 µM) |  |  |  |  |  |
| CC(CN)=C1CCN(c2nc3c(cc2F)c(=O)c(C(=O)O)cn3C2CC2)CC1 [Compound 2, 7-[4-(2-Amino-1-methyl-ethylidene)-piperidin-1-yl]-1-cyclopropyl-6-fluoro-4-oxo-1,4-dihydro-[1,8]naphthyridine-3-carboxylic acid] | 0.06 (≈ 0.155 µM) | 0.12 (≈ 0.311 µM) | 0.25 (≈ 0.647 µM) | 1 (≈ 2.59 µM) | 1 (≈ 2.59 µM) |  |  |  |  |  |
| NCC(Cl)=C1CCN(c2nc3c(cc2F)c(=O)c(C(=O)O)cn3C2CC2)CC1 [Compound 3, 7-[4-(2-Amino-1-chloro-ethylidene)-piperidin-1-yl]-1-cyclopropyl-6-fluoro-4-oxo-1,4-dihydro-[1,8]naphthyridine-3-carboxylic acid] | 0.06 (≈ 0.147 µM) | 0.12 (≈ 0.295 µM) | 1 (≈ 2.46 µM) | 0.25 (≈ 0.614 µM) | 1 (≈ 2.46 µM) |  |  |  |  |  |
| NCC(F)=C1CCN(c2nc3c(cc2F)c(=O)c(C(=O)O)cn3-c2ccc(F)cc2F)CC1 [Compound 4, 7-[4-(2-Amino-1-fluoro-ethylidene)-piperidin-1-yl]-1-(2,4-difluoro-phenyl)-6-fluoro-4-oxo-1,4-dihydro-[1,8]naphthyridine-3-carboxylic acid] | 0.06 (≈ 0.13 µM) | 0.25 (≈ 0.541 µM) |  | 1 (≈ 2.16 µM) | 2 (≈ 4.33 µM) |  |  |  |  |  |
| NCC(F)=C1CCN(c2cc3c(cc2F)c(=O)c(C(=O)O)cn3C2CC2)CC1 [Compound 5, 7-[4-(2-Amino-1-fluoro-ethylidene)-piperidin-1-yl]-l - cyclopropyl-6-fluoro-4-oxo-1,4-dihydro-quinoline-3-carboxylic acid trifluoroacetic acid salt] | 0.03 |  |  | 1 |  |  |  |  |  |  |
| COc1c(N2CCC(=C(C)CN)CC2)c(F)cc2c(=O)c(C(=O)O)cn(C3CC3)c12 [Compound 6, 7-[4-(2-Amino-1-methyl-ethylidene)-piperidin-1-yl]-1-cyclopropyl-6-fluoro-8-methoxy-4-oxo-1,4-dihydro-quinoline-3-carboxylic acid] | 0.03 (≈ 0.0722 µM) | 0.06 (≈ 0.144 µM) |  | 0.5 (≈ 1.2 µM) |  |  |  |  |  |  |
| COc1c(N2CCC(=C(Cl)CN)CC2)c(F)cc2c(=O)c(C(=O)O)cn(C3CC3)c12 [Compound 7, 7-[4-(2-Amino-1-chloro-ethylidene)-piperidin-1-yl]-1-cyclopropyl-6-fluoro-8-methoxy-4-oxo-1,4-dihydro-quinoline-3-carboxylic Acid] | 0.015 (≈ 0.0344 µM) | 0.06 (≈ 0.138 µM) | 0.06 (≈ 0.138 µM) | 0.12 (≈ 0.275 µM) | 0.12 (≈ 0.275 µM) |  |  |  |  |  |
| CC1COc2c(N3CCC(=C(F)CN)CC3)c(F)cc3c(=O)c(C(=O)O)cn1c23 (centres unmarked) [Compound 8, 9-[4-(2-Amino-1-fluoro-ethylidene)-piperidin-1-yl]-8-fluoro-3-methyl-6-oxo-2,3-dihydro-6H-1-oxa-3a-aza-phenalene-5-carboxylic acid] | 0.25 (≈ 0.617 µM) | 0.5 (≈ 1.23 µM) | 2 (≈ 4.93 µM) | 8 (≈ 19.7 µM) | 8 (≈ 19.7 µM) |  |  |  |  |  |
| CC(CN)=C1CCN(c2c(F)cc3c(=O)c(C(=O)O)cn4c3c2OCC4C)CC1 (centres unmarked) [Compound 9, 9-[4-(2-Amino-1-methyl-ethylidene)-piperidin-1-yl]-8-fluoro-3-methyl-6-oxo-2,3-dihydro-6H-1-oxa-3a-aza-phenalene-5-carboxylic acid] | 0.5 (≈ 1.25 µM) | 1 (≈ 2.49 µM) | 4 (≈ 9.96 µM) | > 16 | > 16 |  |  |  |  |  |
| COc1c(N2CCC(=C(F)CN)CC2)ccc2c(=O)c(C(=O)O)cn(C3CC3)c12 [Compound 10, 7-[4-(2-Amino-1-fluoro-ethylidene)-piperidin-1-yl]-1-cyclopropyl-8-methoxy-4-oxo-1,4-dihydro-quinoline-3-carboxylic acid] | 0.03 (≈ 0.0747 µM) | 0.12 (≈ 0.299 µM) |  | 0.5 (≈ 1.25 µM) | 1 (≈ 2.49 µM) |  |  |  |  |  |
| COc1c(N2CC/C(=C(/F)CN)C(C)C2)c(F)cc2c(=O)c(C(=O)O)cn(C3CC3)c12 (centres unmarked) [Compound 11, (Z)-7-[4-(2-Amino-1-fluoro-ethylidene)-3-methyl-piperidin-1-yl]-1-cyclopropyl-6-fluoro-8-methoxy-4-oxo-1,4-dihydro-quinoline-3-carboxylic acid] | 0.03 (≈ 0.0692 µM) | 0.12 (≈ 0.277 µM) |  | 0.5 (≈ 1.15 µM) | 1 (≈ 2.31 µM) |  |  |  |  |  |
| COc1c(N2CCC(=C(F)CN)CC2)c(F)cc2c(=O)c(C(=O)O)cn(C3CC3)c12 [Compound 12, (E)-7-[4-(2-Amino-1-fluoro-ethylidene)-piperidin-1-yl]-1-cyclopropyl-7-6-fluoro-8-methoxy-4-oxo-1,4-dihydro-quinoline-3-carboxylic acid] |  |  |  |  |  | 0.12 (≈ 0.286 µM) | 2 (≈ 4.77 µM) | 4 (≈ 9.54 µM) | 4 (≈ 9.54 µM) | 0.5 (≈ 1.19 µM) |
| COc1c(N2CC/C(=C(\Cl)CN)C2)c(F)cc2c(=O)c(C(=O)O)cn(C3CC3)c12 [Compound 14, (E)-7-[3-(2-Amino-1-chloro-ethylidene)-pyrrolidin-1-yl]-1-cyclopropyl-6-fluoro-8-methoxy-4-oxo-1,4-dihydro-quinoline-3-carboxylic acid] | 0.03 (≈ 0.0711 µM) | 0.25 (≈ 0.593 µM) | 2 (≈ 4.74 µM) | 1 (≈ 2.37 µM) | 1 (≈ 2.37 µM) |  |  |  |  |  |
| NCC=C1CCN(c2nc3c(cc2F)c(=O)c(C(=O)O)cn3C2CC2)CC1 [Compound 59, 7-[4-(2-Amino-ethylidene)-piperidin-1-yl]-1-cyclopropyl-6-fluoro-4-oxo-1,4-dihydro-[1,8]naphthyridine-3-carboxylic acid] | 0.06 (≈ 0.161 µM) | 0.5 (≈ 1.34 µM) | 8 (≈ 21.5 µM) | 8 (≈ 21.5 µM) |  |  |  |  |  |  |
| NCC=C1CCN(c2nc3c(cc2F)c(=O)c(C(=O)O)cn3C2CC2)CC1O (centres unmarked) [Compound 60, 7-[4-(2-Amino-ethylidene)-3-hydroxy-piperidin-1-yl]-1-cyclopropyl-6-fluoro-4-oxo-1,4-dihydro-[1,8]naphthyridine-3-carboxylic acid] | 2 (≈ 5.15 µM) | 16 (≈ 41.2 µM) |  | 16 (≈ 41.2 µM) |  |  |  |  |  |  |
| CON=C1CN(c2nc3c(cc2F)c(=O)c(C(=O)O)cn3C2CC2)CCC1=CCN [Compound 61, 7-[4-(2-Amino-ethylidene)-3-methoxyimino-piperidin-1-yl]-1-cyclopropyl-6-fluoro-4-oxo-1,4-dihydro-[1,8]naphthyridine-3-carboxylic acid] | 0.12 (≈ 0.289 µM) | 1 (≈ 2.41 µM) |  | 16 (≈ 38.5 µM) |  |  |  |  |  |  |
| CC(CN)=C1CCN(c2nc3c(cc2F)c(=O)c(C(=O)O)cn3C2CC2)CC1O (centres unmarked) [Compound 62, 7-[4-(2-Amino-1-methyl-ethylidene)-3-hydroxy-piperidin-1-yl]-1-cyclopropyl-6-fluoro-4-oxo-1,4-dihydro-[1,8]naphthyridine-3-carboxylic acid] | 2 (≈ 4.97 µM) | 8 (≈ 19.9 µM) | > 16 | > 16 |  |  |  |  |  |  |
| CC(CN)=C1CCN(c2cc3c(cc2F)c(=O)c(C(=O)O)cn3C2CC2)CC1 [Compound 64, 7-[4-(2-Amino-1-methyl-ethylidene)-piperidin-1-yl]-1-cyclopropyl-6-fluoro-4-oxo-1,4-dihydro-quinoline-3-carboxylic acid] | 0.12 (≈ 0.311 µM) | 1 (≈ 2.59 µM) | 8 (≈ 20.8 µM) | 2 (≈ 5.19 µM) | 8 (≈ 20.8 µM) |  |  |  |  |  |
| NCC(Cl)=C1CCN(c2cc3c(cc2F)c(=O)c(C(=O)O)cn3C2CC2)CC1 [Compound 65, 7-[4-(2-Amino-1-chloro-ethylidene)-piperidin-1-yl]-1-1-cyclopropyl-6-fluoro-4-oxo-1,4-dihydro-quinoline-3-carboxylic acid] | 0.03 (≈ 0.0739 µM) | 0.12 (≈ 0.296 µM) |  | 0.5 (≈ 1.23 µM) | 1 (≈ 2.46 µM) |  |  |  |  |  |
| CCC(CN)=C1CCN(c2nc3c(cc2F)c(=O)c(C(=O)O)cn3C2CC2)CC1 [Compound 69, 7-[4-(1-Aminomethyl-propylidene)-piperidin-1-yl]-1-cyclopropyl-6-fluoro-4-oxo-1,4-dihydro-[1,8]naphthyridine-3-carboxylic acid] | 0.06 (≈ 0.15 µM) | 0.25 (≈ 0.624 µM) |  | 1 (≈ 2.5 µM) | 2 (≈ 4.99 µM) |  |  |  |  |  |
| COc1c(N2CCC(=C(C)CN)CC2)c(F)cc2c(=O)c(C(=O)O)cn(C3CC3)c12 [Compound 70, 7-[4-(2-Amino-1-methyl-ethylidene)-piperidin-1-yl]-1-cyclopropyl-6-fluoro-8-methoxy-4-oxo-1,4-dihydro-quinoline-3-carboxylic acid] |  |  |  |  | 0.25 (≈ 0.602 µM) | 0.03 (≈ 0.0722 µM) |  | 0.25 (≈ 0.602 µM) |  | 0.12 (≈ 0.289 µM) |
| CCC(CN)=C1CCN(c2c(F)cc3c(=O)c(C(=O)O)cn(C4CC4)c3c2OC)CC1 [Compound 71, 7-[4-(1-Aminomethyl-propylidene)-piperidin-1-yl]-1-cyclopropyl-6-fluoro-8-methoxy-4-oxo-1,4-dihydro-quinoline-3-carboxylic acid] | 0.03 (≈ 0.0698 µM) | 0.12 (≈ 0.279 µM) |  | 0.25 (≈ 0.582 µM) | 0.5 (≈ 1.16 µM) |  |  |  |  |  |
